Laboratory results from patent publication US7964219B2, “Pharmaceutical compositions for controlled release delivery of biologically active compounds” (QPS, LLC, priority 2004, dated 2011).

Key:
[1] = Stability of octreotide in injectable formulations at room temperature by HPLC (Example 12)
Description: Injectable formulations of octreotide were prepared by dispersing octreotide in polymer solution in an appropriate solvent. […] The mixture was thoroughly mixed until a uniform suspension or solution was obtained. Six injectable formulations were prepared as shown below.
The stability of octreotide in the above injectable formulations at room temperature was monitored by HPLC and the results are shown in the table below.

[2] = Stability of octreotide in injectable formulations at room temperature by HPLC (Example 13); assay type: physicochemical; conditions: PLGA/NMP vehicle, after 24 h
Description: The injectable polymer solutions were prepared by dispersing octreotide phytate or acetate or citrate. […] Injectable formulations were prepared as shown below.
It appears that both salt forms of octreotide and the solvent affect the stability of octreotide. In terms of the stability of octreotide, mPEG is preferred than NMP and phytate complex form of octreotide is preferred than acetate and citrate salt of octreotide.

[3] = Release of octreotide in vivo in rats by implant retrieval (Example 14); set-up: species or system Sprague-Dawley male rats; conditions: PLGA/NMP vehicle, after 24 h
Description: Poly(DL-lactide-co-glycolide) (PLGA) was dissolved in N-methyl-2-pyrrolidone (NMP), or methoxypolyethylene glycohol (mPEG) to give a 40% solution by weight. The injectable formulations were prepared by dispersing octreotide phytate or acetate. The mixture was thoroughly mixed until a uniform suspension or solution was obtained. These formulations of octreotide (roughly about 100 uL) were administered subcutaneously in the back of the Sprague-Dawley male rats. The release of octreotide was determined by implant retrieval at predefined time intervals (30 min for group G and 24 h for groups A through F) after ministration and analysis of the octreotide remaining in the implant.

SMILES	octreotide degraded or acylated ([1]; PLGA solution in NMP, room temperature)	Stability of octreotide (degraded or reacted) ([1]; after three days at room temperature)	degradation/reaction of octreotide in vitro [2]	degradation/reaction of octreotide in vivo [3]
C[C@@H](O)[C@@H]1NC(=O)[C@H](CCCCN)NC(=O)[C@@H](Cc2c[nH]c3ccccc23)NC(=O)[C@H](Cc2ccccc2)NC(=O)[C@@H](NC(=O)[C@H](N)Cc2ccccc2)CSSC[C@@H](C(=O)N[C@H](CO)[C@@H](C)O)NC1=O [octreotide acetate]	~100%	significant amount of the octreotide was degraded or reacted		
C[C@@H](O)[C@@H]1NC(=O)[C@H](CCCCN)NC(=O)[C@@H](Cc2c[nH]c3ccccc23)NC(=O)[C@H](Cc2ccccc2)NC(=O)[C@@H](NC(=O)[C@H](N)Cc2ccccc2)CSSC[C@@H](C(=O)N[C@H](CO)[C@@H](C)O)NC1=O [octreotide]			85%	30%
